The values below are quoted from earlier work in patent publication US7803392B2, “pH-Sensitive mucoadhesive film-forming gels and wax-film composites suitable for topical and mucosal delivery of molecules” (University of Kentucky Research Foundation, priority 2000, dated 2010).

The conditions of data set [1]: buccal administration of 5 mg midazolam.
For data set [2] the following is noted: buccal 10 mg midazolam per 2 mL.
For data set [3] the following is noted: subcutaneous injection twice a day for 8 days, patients.

The pKa is the pH at which an ionisable group is half protonated. On to `Oc1cc(Cl)ccc1Oc1ccc(Cl)cc1Cl` [Triclosan, 2,4,4′-Trichloro 2′-hydroxy-diphenyl-ether 5-chloro 2-(2,4-dichlorophenoxy)-phenol], for which the pKa was 7.9. The “solubility in alkaline solutions” value (alkaline solutions) is listed as “readily soluble”. Also, the solubility in ethanol entry (ethanol) was “soluble”. Besides, the “solubility in polyethylene glycol 400” value (polyethylene glycol 400) is recorded as “soluble”. The solubility in water result (water) is “insoluble”.

For `Cc1ncc2n1-c1ccc(Cl)cc1C(c1ccccc1F)=NC2` [midazolam], in data set [1], the maximum plasma concentration is listed as 55.9 ng/mL, the mean bioavailability is 74.5% and the “time of maximum plasma concentration” value was 30 min. The “average time to stop seizures after administration” value in data set [2] (children) is 6 min. The seizures stopped in data set [2] (children (30/40 seizures)) is listed as 75%.

Take Hirudin: the “lower overall rate of deep-vein thrombosis than low molecular weight heparin” value in data set [3] is recorded as roughly 30%.
